Eight compounds from patent US4025649A, “Acetic acid derivatives having pharmacological activity and compositions containing the same” (priority 1975, dated 1977) can be followed below.

Series [1] is described as follows: Solubility of the isolated acid. It is filed as physicochemical. As to conditions: free acid. From the text: In this manner, 9.6 g of 3-n-propyl-hexanoic acid were obtained in the form of a colourless, slightly viscous liquid, insoluble in water and soluble in the organic solvents.
Series [2] relates to anoxic seizure induced by gallamine triiodoethylate. In words: Antianoxic activity: anoxic seizure induced by gallamine triiodoethylate. The format is in vivo, mouse. Particulars: mice; for antianoxic activity compared with sodium di-n-propylacetate: at the doses studied in Table II. Here is the method: The injection of a sufficient dose of a synthetic curariform substance such as gallamine triiodoethylate provokes in the mouse paralysis of the diaphragm. The animal then dies through asphyxia.
An intraperitoneal dose of the compound to be studied was administered to batches of 20 mice five minutes before the administration of 16 mg/kg of gallamine triiodoethylate by intraperitoneal route. The dose of the compound to be tested was calculated so that each batch received a higher dose than the preceding batch.
The period of time of survival was registered by controlling cardiac arrest by means of an electrocardiogram.
Under these conditions, an antianoxic effect produces an increase in the period of survival of the animal.

For series [3], the system named is γ-aminobutyric α-ketoglutaric transaminase (GABA T). In words: Inhibition of GABA T in vitro (coupled spectrophotometric test with GABASE). The format is biochemical, Pseudomonas fluorescens. Particulars: comparison of Ki with sodium di-n-propylacetate (0.8 m mol/ml).
Protocol: This test was undertaken "in vitro" in the absorption cell of a double-beam U.V. spectrophotometer.
The activity of GABA T was measured by following the reduction rate (v) of NADP^+ which corresponds to the evolution of the optical density at 340 mμ on the spectrophotometer.
Determination of the activity rate of GABA T by the principle hereabove described can be effected with either limiting concentrations or a saturating concentration of one of the substrates, in the present case GABA, in each instance, in the presence of a saturating concentration of the second substrate namely α-ketoglutarate.
This effectiveness is represented by the constant Ki or constant of inhibition which determines the affinity of the enzyme (GABA T) for the inhibitor.
This constant is expressed in units of concentration, in the present case, in m mol per ml and can be determined by plotting all the curves corresponding to 1/v = f (I) for a saturating concentration of GABA and for different limiting concentrations of GABA.
The following experimental procedure was used:
In the absorption cell (optical passage: 1 cm, volume: about 1 ml) the following solutions were introduced.
0.5 ml of a 1.5 molar solution of sodium sulphate
0.05 ml of a molar buffer solution of pH = 7.9
0.05 ml of a 0.1 molar solution of mercapto-ethanol
0.05 ml of a 20 mg/ml solution of NADP^+
0.125 ml of a solution of GABA
0.03 ml of a 40 mg/ml solution of GABASE (namely a bacterial enzyme isolated from Pseudomonas fluorescens containing a mixture of γ-aminobutyric α-ketoglutaric transaminase and succinosemialdehyde dehydrogenase).
0.125 ml of a solution of the compound to be studied.
If the compound of the invention was in the form of a water-insoluble acid, its sodium salt was used after adjustment to a pH of about 7.9 by adding a titrated solution of sodium hydroxide.
Different measurements of optical density were effected by varying the concentration of GABA and the concentration of the compound under study. Control assays were also effected by replacing the solution of the compound to be studied by 0.125 ml of water.
The content of the absorption cell was allowed to incubate for 10 minutes at 30° C. and then the enzymatic reaction was started by adding 0.1 ml of a 0.02 molar solution of α-ketoglutarate in the absorption cell. The final volume was 1.03 ml. The reaction was then followed by spectrophotometric recording of the reduction rate of the NADP^+ at 340 mμ and at 30° C. The optical density was automatically registered every 30 seconds.
Series [4] concerns pentylenetetrazol-induced seizure. Nature of the series: Anticonvulsant activity: pentylenetetrazol-induced seizure. The format is in vivo. Particulars: for % of protection: i.p. 15 min before 125 mg/kg pentylenetetrazol i.p., deaths noted at 3 hours, dose mg/kg: A 160, B 175, C 185, F 185, G 175; for anticonvulsant activity compared with sodium di-n-propylacetate / duration of anticonvulsant action compared with sodium di-n-propylacetate: pentylenetetrazol test. On the procedure:
This test is carried out on mice with a view to determining whether the compounds of this invention, when given preventively by intraperitoneal route, are capable at certain doses of protecting some of the animals against the epileptic seizure produced by an adequate and predetermined dose of pentylenetetrazol which would be 100% fatal in the absence of the compound.
The test was carried out on batches of 10 mice. Each batch of animals received an intraperitoneal dose of the compound to be studied so that each batch received a higher dose than the preceding batch. Fifteen minutes after administration of the compound to be tested, the animals were each given 125 mg/kg of pentylenetetrazol by intraperitoneal route. The percentage of deaths was noted 3 hours after injection of this latter compound and the result was expressed as a percentage of protection.

The nature of a further series: in vivo. As to conditions: ip, mouse, intraperitoneal route.
The test system of series [5] is pentylenetetrazol-induced seizure. In words: Anticonvulsant activity: pentylenetetrazol-induced seizure. The format is in vivo. Particulars: mice; for % of the animals still protected one hour after administration: 195 mg/kg of Compound B, 210 mg/kg of Compound C.
[6] abbreviates: i.p. 5 min before 16 mg/kg gallamine triiodoethylate i.p., dose mg/kg: A 360, D 250, E 150, F 210, G 355.
[7] abbreviates: mice, 195 mg/kg of Compound B, 210 mg/kg of Compound C.

In the case of `CCCC(CCC)CC(=O)O` [Compound A, 3-n-Propyl-hexanoic acid], the “solubility in the organic solvents” value in series [1] (organic solvents) is “soluble”. Also, the solubility in water entry in series [1] (water) is “insoluble”. Moreover, the “antianoxic activity compared with sodium di-n-propylacetate” value in series [2] is listed as “slightly more active”. Moreover, in series [2] (setting [6]), the “% of increase in the period of survival in comparison with the controls” value (“% of increase in the period of survival” for short) came to 60%. The “activity as GABA T inhibitor compared with sodium di-n-propylacetate” value in series [3] is given as “more active”. Also, in series [4] (mice), the “% of protection” value is 100% and the “anticonvulsant activity compared with sodium di-n-propylacetate” value was “more active”. Further, in series [4] (mice, 105 mg/kg by intraperitoneal route), the “% protection against the pentylenetetrazol-induced seizure” value is given as 85%. Further, the LD50 in the series “in vivo” turned out to be 500 mg/kg. Besides, the MTD in “in vivo” (read-out: LDO, maximum tolerated dose (M.T.D.), highest dose which provokes no deaths) was greater than 400 mg/kg.
In the case of `CC(C)CC(=O)O` [Compound D, 3-methyl-butanoic acid], the “antianoxic activity compared with sodium di-n-propylacetate” value in series [2] is listed as “appreciably more active”. In series [2] (setting [6]), the “% of increase in the period of survival” value is given as 73%.
For `CCC(CC)CC(=O)O` [Compound E, 3-ethyl-pentanoic acid], in that order: “appreciably more active” and 59%.
In the case of `CCCC(CCC)CCC(=O)O` [Compound B, 4-n-Propyl-heptanoic acid], the “activity as GABA T inhibitor compared with sodium di-n-propylacetate” value in series [3] is “slightly less active”. For the same compound, the “% of the animals still protected one hour after administration” value in series [5] came to 40%. In series [4] (mice), the “% of protection” value was 85% and the “duration of anticonvulsant action compared with sodium di-n-propylacetate” value is listed as “longer period of time”. Moreover, the “% protection against the pentylenetetrazol-induced seizure” value in series [4] (setting [7]) is “about 100%”. In the series “in vivo”, this compound displayed an LD50 of 350 mg/kg.
With `CCCC(=CC(=O)O)CCC` [Compound G, 3-n-Propyl-2-hexenoic acid], the “antianoxic activity compared with sodium di-n-propylacetate” value in series [2] is reported as “slightly more active”. Also, the “% of increase in the period of survival” value in series [2] (setting [6]) amounted to 50%. Besides, the “activity as GABA T inhibitor compared with sodium di-n-propylacetate” value in series [3] was “more active”. The “% of protection” value in series [4] (mice) was 75%.
In the case of `CCCC(CCC)CCCC(=O)O` [Compound C, 5-n-Propyl-octanoic acid], the “% of the animals still protected one hour after administration” value in series [5] came out at 70%. The “% of the mice protected against the pentylenetetrazol-induced seizure” value in series [4] (125 mg/kg by intraperitoneal route) turned out to be 65%. Also, in series [4] (mice), the “% of protection” value came out at 85% and the “duration of anticonvulsant action compared with sodium di-n-propylacetate” value is listed as “longer period of time”. In addition, the “% protection against the pentylenetetrazol-induced seizure” value in series [4] (setting [7]) is “about 100%”. This compound also came in with a 50% lethal dose (LD50) in the series “in vivo” of 350 mg/kg.
For `CCCC(CCC)C(=O)[O-].[Na+]` [sodium di-n-propylacetate, reference compound], the “% of increase in the period of survival” value in series [2] (330 mg/kg, same conditions (i.p. 5 min before 16 mg/kg gallamine triiodoethylate i.p.)) was found to be 40%. Moreover, in series [5] (250 mg/kg), the “% protection of the animals one hour after administration” value is 20%. Also, the “% of animals protected against the pentylenetetrazol-induced seizure” value in series [4] (mice, 250 mg/kg, same conditions) was 100%.
Consider `CCCCC(CCCC)CC(=O)O` [Compound F, 3-n-Butyl-heptanoic acid], for which the “antianoxic activity compared with sodium di-n-propylacetate” value in series [2] is recorded as “slightly more active”. Moreover, the “% of increase in the period of survival” value in series [2] (setting [6]) was determined as 29%. Moreover, in series [3], the “activity as GABA T inhibitor compared with sodium di-n-propylacetate” value is listed as “slightly less active”. For the same compound, in series [4] (mice), the “% of protection” value is on record as 95% and the “anticonvulsant activity compared with sodium di-n-propylacetate” value is reported as “more active”. For the same compound, the LD50 in the series “in vivo” stood at 300 mg/kg.

What is called LD50 is the dose at which mortality reaches 50%. Read a low LD50 as a more toxic substance.
